Results published in ChEMBL document CHEMBL1201862, “PubChem BioAssay data set” (2004).
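Values below derive from 48-hour exposures of cells grown in 96-well plates, with endpoints linearly interpolated between the two concentrations bracketing the appropriate inhibition level. GI50: concentration for 50% inhibition of growth.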 Activity calls are given as the source filed them. Rule as the data show it: active = GI50 up to about 1.1 µM and inactive = higher.

Legend:
Assay in all cases: NCI anticancer screen, dose series, 48 h
HOP-92 = tested on: HOP-92
OVCAR-3 = tested on: OVCAR-3
LOX IMVI = tested on: LOX IMVI
RPMI-8226 = tested on: RPMI-8226
ACHN = tested on: ACHN
SN12C = tested on: SN12C
KM12 = tested on: KM12
OVCAR-4 = tested on: OVCAR-4
MOLT-4 = tested on: MOLT-4
M14 = tested on: M14
A549 = tested on: A549
HCT-15 = tested on: HCT-15
NCI-H522 = tested on: NCI-H522
Malme-3M = tested on: Malme-3M
U-251 = tested on: U-251
CAKI-1 = tested on: CAKI-1
HCT-116 = tested on: HCT-116
HCC 2998 = tested on: HCC 2998
HL-60 = tested on: HL-60
A498 = tested on: A498

| SMILES | GI50 (HOP-92) | GI50 (OVCAR-3) | GI50 (LOX IMVI) | GI50 (RPMI-8226) | GI50 (ACHN) | GI50 (SN12C) | GI50 (KM12) | GI50 (OVCAR-4) | GI50 (MOLT-4) | GI50 (M14) | GI50 (A549) | GI50 (HCT-15) | GI50 (NCI-H522) | GI50 (Malme-3M) | GI50 (U-251) | GI50 (CAKI-1) | GI50 (HCT-116) | GI50 (HCC 2998) | GI50 (HL-60) | GI50 (A498) |
| --- | --- | --- | --- | --- | --- | --- | --- | --- | --- | --- | --- | --- | --- | --- | --- | --- | --- | --- | --- | --- |
| CCOC(=O)c1nc2c3c(ncn2n1)Oc1c(c(-c2ccccc2)nn1-c1ccccc1)C3c1ccc(OC)c(OC)c1 (centres undefined) | 41.1 µM (inactive) | > 100 µM (inactive) | > 100 µM (inactive) | 25.9 µM (inactive) | 47 µM (inactive) | > 100 µM (inactive) | > 10 µM (inactive) | 6.04 µM (inactive) | > 100 µM (inactive) | > 100 µM (inactive) | 59.2 µM (inactive) | > 100 µM | > 100 µM (inactive) | > 100 µM (inactive) | 31.3 µM (inactive) | 50.1 µM (inactive) | 65.2 µM (inactive) | > 100 µM (inactive) |  |  |
| Cc1ccc(S(=O)(=O)N2CCSCCSCCSCCN(S(=O)(=O)c3ccc(C)cc3)CC2)cc1 | > 100 µM (inactive) | > 100 µM (inactive) |  | > 100 µM (inactive) | > 100 µM (inactive) | > 100 µM (inactive) | > 100 µM (inactive) | > 100 µM (inactive) | > 100 µM (inactive) | > 100 µM (inactive) | > 100 µM (inactive) |  |  |  | > 100 µM (inactive) |  | > 100 µM (inactive) | > 100 µM (inactive) | > 100 µM (inactive) | > 100 µM (inactive) |
| Cc1ccc(NC(=O)CCc2nnc(S)[nH]2)cc1 | > 100 µM (inactive) | > 100 µM (inactive) |  | > 100 µM (inactive) | > 100 µM (inactive) | > 100 µM (inactive) | > 100 µM (inactive) | > 100 µM (inactive) | > 100 µM (inactive) | > 100 µM (inactive) | > 100 µM (inactive) | 76 µM | > 100 µM (inactive) | > 100 µM (inactive) | > 100 µM (inactive) | > 100 µM (inactive) | > 100 µM (inactive) |  | > 100 µM (inactive) | > 100 µM (inactive) |
| CC(=O)N/C(=C\c1ccc(/C=C(\NC(C)=O)c2nc3cc(Cl)ccc3[nH]2)cc1)c1nc2ccccc2[nH]1 | > 100 µM (inactive) | > 100 µM (inactive) |  | > 100 µM (inactive) | > 100 µM (inactive) | > 100 µM (inactive) | > 100 µM (inactive) |  | > 100 µM (inactive) | > 100 µM (inactive) | > 100 µM (inactive) | > 100 µM | > 100 µM (inactive) | > 100 µM (inactive) | > 100 µM (inactive) | > 100 µM (inactive) | > 100 µM (inactive) |  |  | > 100 µM (inactive) |
| N#C/C(=C1\SC(/N=N/c2ccccc2)C(=O)N1c1ccccc1)c1nc2ccccc2[nH]1 (centres undefined) | 23.5 µM (inactive) | 68.1 µM (inactive) | > 100 µM (inactive) |  | > 100 µM (inactive) | > 100 µM (inactive) |  | 66.7 µM (inactive) | 26.1 µM (inactive) | 78.2 µM (inactive) | > 100 µM (inactive) | > 100 µM | > 100 µM (inactive) | > 100 µM (inactive) | 54.2 µM (inactive) | > 100 µM (inactive) | > 100 µM (inactive) |  | 48.8 µM (inactive) | > 100 µM (inactive) |
| CC1=NN2CCC(=O)N=C2S1 | > 100 µM (inactive) | > 100 µM (inactive) | > 100 µM (inactive) | > 100 µM (inactive) | > 100 µM (inactive) | > 100 µM (inactive) | > 100 µM (inactive) | > 100 µM (inactive) | > 100 µM (inactive) | > 100 µM (inactive) | > 100 µM (inactive) | > 100 µM | > 100 µM (inactive) | > 100 µM (inactive) | > 100 µM (inactive) | > 100 µM (inactive) | > 100 µM (inactive) |  | > 100 µM (inactive) |  |
| NNc1cnn(-c2ccccc2)c(=O)c1Cl | > 100 µM (inactive) | > 100 µM (inactive) | > 100 µM (inactive) | > 100 µM (inactive) | > 100 µM (inactive) | > 100 µM (inactive) | > 100 µM (inactive) | > 100 µM (inactive) | > 100 µM (inactive) | > 100 µM (inactive) | > 100 µM (inactive) | > 100 µM | > 100 µM (inactive) | > 100 µM (inactive) | > 100 µM (inactive) | > 100 µM (inactive) | > 100 µM (inactive) |  | > 100 µM (inactive) | > 100 µM (inactive) |
| Cc1nn(C(=O)CC(=O)Nc2ccccc2Cl)c(C)c1/N=N/c1ccccc1Cl | > 100 µM (inactive) | > 100 µM (inactive) | > 100 µM (inactive) |  | > 100 µM (inactive) | > 100 µM (inactive) | > 100 µM (inactive) | > 100 µM (inactive) | > 100 µM (inactive) | > 100 µM (inactive) | > 100 µM (inactive) | > 100 µM |  | > 100 µM (inactive) | > 100 µM (inactive) | > 100 µM (inactive) | > 100 µM (inactive) | > 100 µM (inactive) | > 100 µM (inactive) | > 100 µM (inactive) |
| O=C(O)C(Cc1ccccc1)N1C(=O)N/C(=C\c2ccc(F)cc2)C1=O (centres undefined) | > 100 µM (inactive) |  | > 100 µM (inactive) | > 100 µM (inactive) | > 100 µM (inactive) | > 100 µM (inactive) | > 100 µM (inactive) | > 100 µM (inactive) | > 100 µM (inactive) | > 100 µM (inactive) | > 100 µM (inactive) | > 100 µM | > 100 µM (inactive) |  | > 100 µM (inactive) | > 100 µM (inactive) | > 100 µM (inactive) | > 100 µM (inactive) | > 100 µM (inactive) |  |
| COc1ccc2c3c1O[C@H]1C(=O)C=CC4(n5[nH]c(=O)n(-c6ccccc6)c5=O)C(C2)N(C)CCC314 (some centres undefined) | > 100 µM (inactive) | > 100 µM (inactive) | > 100 µM (inactive) | > 100 µM (inactive) | > 100 µM (inactive) | > 100 µM (inactive) | > 100 µM (inactive) | > 100 µM (inactive) | > 100 µM (inactive) | > 100 µM (inactive) | > 100 µM (inactive) | > 100 µM | > 100 µM (inactive) | > 100 µM (inactive) | > 100 µM (inactive) | > 100 µM (inactive) | > 100 µM (inactive) |  | > 100 µM (inactive) | > 100 µM (inactive) |
| CCC1([N+](=O)[O-])CC2C=CC1C2 (centres undefined) | 62.7 µM (inactive) | > 100 µM (inactive) | > 100 µM (inactive) | > 100 µM (inactive) | > 100 µM (inactive) | > 100 µM (inactive) | > 100 µM (inactive) | > 100 µM (inactive) | > 100 µM (inactive) | > 100 µM (inactive) | > 100 µM (inactive) | > 100 µM | > 100 µM (inactive) | > 100 µM (inactive) | > 100 µM (inactive) | > 100 µM (inactive) | > 100 µM (inactive) |  | 49.9 µM (inactive) | > 100 µM (inactive) |
| Cc1ncc(CSc2ccccc2N)c(CO)c1O | > 100 µM (inactive) | > 100 µM (inactive) | > 100 µM (inactive) | > 100 µM (inactive) | > 100 µM (inactive) | > 100 µM (inactive) | > 100 µM (inactive) | > 100 µM (inactive) | > 100 µM (inactive) | > 100 µM (inactive) | > 100 µM (inactive) | > 100 µM | > 100 µM (inactive) | > 100 µM (inactive) | > 100 µM (inactive) | > 100 µM (inactive) | > 100 µM (inactive) |  |  | > 100 µM (inactive) |
| Cc1cc(C)nc(NS(=O)(=O)c2ccc(NC(=O)c3cccc4c(Nc5ccc(S(=O)(=O)Nc6nc(C)cc(C)n6)cc5)c5ccccc5nc34)cc2)n1 | 18.9 µM (inactive) | 19.9 µM (inactive) | 17.6 µM (inactive) | 20.2 µM (inactive) | 23.4 µM (inactive) | 14.3 µM (inactive) | 18.5 µM (inactive) | 25.7 µM (inactive) | 22.4 µM (inactive) | 25.1 µM (inactive) | 25.8 µM (inactive) | 21.6 µM | 13.2 µM (inactive) | 27.6 µM (inactive) | 16.4 µM (inactive) | 22.8 µM (inactive) | 11.7 µM (inactive) |  | 18.1 µM (inactive) | 18.7 µM (inactive) |
| CC1C2(C)OCC(C#N)(C(=N)O2)C1(C#N)C#N (centres undefined) | 21.9 µM (inactive) | 15.1 µM (inactive) | 17.7 µM (inactive) |  | 36.5 µM (inactive) | 15.7 µM (inactive) | 36.2 µM (inactive) |  | 27.3 µM (inactive) | 16.1 µM (inactive) | > 100 µM (inactive) | 13.5 µM |  | 18.5 µM (inactive) | 16.3 µM (inactive) | 12.5 µM (inactive) | 18.3 µM (inactive) | > 10 µM (inactive) | 15.6 µM (inactive) | 88.7 µM (inactive) |
| C[N+]1(C)C(c2ccccc2)C(=O)O[B@-]1(F)c1ccccc1 (some centres undefined) | 88.1 µM (inactive) | > 100 µM (inactive) | > 100 µM (inactive) | > 100 µM (inactive) | > 100 µM (inactive) | > 100 µM (inactive) |  | > 100 µM (inactive) | > 100 µM (inactive) | > 100 µM (inactive) | > 100 µM (inactive) | > 100 µM |  | > 100 µM (inactive) | > 100 µM (inactive) |  | > 100 µM (inactive) | > 100 µM (inactive) | > 100 µM (inactive) | 25.7 µM (inactive) |
| CCCc1cc(COC)c(C#N)c(O)n1 |  | > 100 µM (inactive) | > 100 µM (inactive) | > 100 µM (inactive) | > 100 µM (inactive) | > 100 µM (inactive) | > 100 µM (inactive) | > 100 µM (inactive) | > 100 µM (inactive) | > 100 µM (inactive) | > 100 µM (inactive) | > 100 µM | > 100 µM (inactive) | > 100 µM (inactive) | > 100 µM (inactive) | > 100 µM (inactive) | > 100 µM (inactive) | > 100 µM (inactive) | > 100 µM (inactive) | > 100 µM (inactive) |
